Results as given in patent US8859573B2, “Pyrimidinone and pyridinone compounds for use in the treatment of diseases or conditions mediated by Lp-PLA2” (Glaxo Group Limited, priority 2010, dated 2014).

What was measured:
[1] = target: T1, recombinant human Lp-PLA2 (Homo sapiens, UniProt Q13093); test: Recombinant human Lp-PLA2 assay (rhLp-PLA2, PED6 assay); type: biochemical; conditions: upper limit for pIC50 in this assay is 9.3
T1 sequence (Q13093 22-441): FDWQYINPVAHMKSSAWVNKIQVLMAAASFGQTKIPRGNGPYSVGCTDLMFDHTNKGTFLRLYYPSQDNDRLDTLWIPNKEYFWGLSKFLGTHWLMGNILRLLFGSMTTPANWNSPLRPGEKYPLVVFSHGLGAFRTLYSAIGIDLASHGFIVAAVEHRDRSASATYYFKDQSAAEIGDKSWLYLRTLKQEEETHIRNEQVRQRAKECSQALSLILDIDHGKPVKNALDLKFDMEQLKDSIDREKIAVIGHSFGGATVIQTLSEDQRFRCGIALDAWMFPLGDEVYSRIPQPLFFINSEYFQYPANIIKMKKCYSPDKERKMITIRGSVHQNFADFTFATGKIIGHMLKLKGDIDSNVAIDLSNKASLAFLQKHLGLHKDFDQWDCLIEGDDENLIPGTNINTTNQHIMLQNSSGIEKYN
Excerpt: (1) Recombinant Human Lp-PLA2 Assay (rhLp-PLA2) (Also Referred to as “PED6” Assay)
N-((6-(2,4-dinitrophenyl)amino)-hexanoyl)-2-(4,4-difluoro-5,7-dimethyl-4-bora-3a,4a-diaza-s-indacene-3-pentanoyl)-1-hexadecanoyl-sn-glycero-3-phosphoethanolamine, triethylammonium salt (PED6) is a commercially available fluorescently-labelled phospholipid, which is commercially available from Molecular Probes. There is a quenching para-nitro phenyl (PNP) group in the sn3 position and a Bodipy fluorescein (FL) group in the sn2 position. Upon cleavage with Lp-PLA2, the Bodipy F1 group is liberated and then may result in an increase in fluorescence. Inhibitors of Lp-PLA2 therefore prevent this cleavage and no fluorescent increase is observed.
The PED6 assay was run as an […] 10 μL assay. Compounds source plate was prepared by making 1:3 (by volume) serial dilution of the compounds into pure DMSO on 384-well microplate. Then, 0.01 μL of compounds on compound source plate were transferred into 384 well Greiner 784076 (black) plates by ECHO liquid dispenser. 5 μL of recombinant human Lp-PLA2 enzyme (2 nM rhLp-PLA2 in assay buffer of 50 mM HEPES, pH7.4, 150 mM NaCl, 1 mM CHAPS) was added to each well of the plate with compounds. Plates were centrifuged for 10 sec at 500 rpm. After 30 minutes preincubation, […] substrate (4 μM PED6 [from 5 mM DMSO stock] in assay buffer of 50 mM HEPES, pH7.4, 150 mM NaCl, 1 mM CHAPS) was added to 384 well Greiner 784076 (black) plates. Plates were centrifuged for 10 sec at 500 rpm. Plate was covered to protect from light and incubated for 20 min at room temperature. Plates were read for fluorescence intensity at ex: 480/em: 540 using ViewLux microplate imager. PIC50 data, curve and QC analysis was conducted by using XL fit module in Excel.

Lp-PLA2 from plasma = target: T2, Lp-PLA2 from plasma (Homo sapiens, UniProt Q13093); test: Lp-PLA2 human plasma assay (Thio-PAF assay); type: biochemical; conditions: pooled human plasma; read-out: pIC50 values in the thio-PAF assay (converted)
T2 construct: from tissue; host or cells: pooled human plasma
T2 sequence (Q13093 22-441): T1 sequence (Q13093 22-441)
In short: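 Pooled human plasma preincubated 30 min with compound, then thio-PAF substrate with NEM and CPM added in pH 7.4 HEPES/NaCl/CHAPS buffer; reaction 2 min at room temperature, quenched with 5% TFA, fluorescence read at ex 380/em 485 after 40 min; pIC50 from curve fitting.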

[2] = tested on: proinflammatory (M1) and anti-inflammatory (M2) markers; test: Ex vivo analysis of M1 and M2 markers in macrophages of EAE animals (realtime PCR); design: species or system rats; conditions: EAE by MBP immunization, splenic macrophages day 13 and CNS infiltrating macrophages
Method: A further study was carried out to study the impact of Lp-PLA2 inhibitors on modulating M1/M2 imbalance. In this study, rats were induced to develop experimental autoimmune encephalomyelitis (EAE) by immunization with myelin basic protein (MBP) antigen and treated with a known Lp-PLA2 inhibitor: 5-((9-Methoxy-4-oxo-6,7-dihydro-4H-pyrimido[6,1-a]isoquinolin-2-yl)oxy)-2-(3-(trifluoromethyl)phenoxy)benzonitrile (See PCT application no. PCT/CN2011/001597) For preventive treatment, compound administration started at day 0 whereas it started at 7 day in therapeutic treatment. Rats were subsequently monitored for symptoms of EAE. Rats were immunized with MBP to develop EAE and symptoms were monitored daily. Plasma Lp-PLA2 activity and LysoPC concentration were determined at different time points through the course of EAE.
Ex vivo analysis of proinflammatory (M1) and anti-inflammatory (M2) markers in control and compound treated EAE […]. Splenic macrophages were harvested at day 13 post MBP-immunization and assayed for expression of a variety of markers by realtime PCR. CNS infiltrating cells were harvested and macrophages were analyzed for expression of M1 and M2 markers by realtime PCR.

SMILES | IC50 [1] | IC50 (Lp-PLA2 from plasma) | M1 markers [2] | M2 markers [2]
Cn1cc(Cn2ccc(OCCc3ccc(Oc4ccc(Cl)c(C(F)(F)F)c4)cc3)nc2=O)cn1 [Example 12, 4-{[2-(4-{[4-Chloro-3-(trifluoromethyl)phenyl]oxy}phenyl)ethyl]oxy}-1-[(1-methyl-1H-pyrazol-4-yl)methyl]-2(1H)-pyrimidinone] | ≤ 1 nM | ≤ 100 nM |  | 
O=c1nc(OCCc2ccc(Oc3ccc(Cl)c(C(F)(F)F)c3)cc2)ccn1Cc1cccnc1 [Example 10, 4-{[2-(4-{[4-Chloro-3-(trifluoromethyl)phenyl]oxy}phenyl)ethyl]oxy}-1-(3-pyridinylmethyl)-2(1H)-pyrimidinone] | ≤ 1 nM | ≤ 100 nM |  | 
COc1ccc2c(c1)CCn1c-2cc(Oc2ccc(Oc3cccc(C(F)(F)F)c3)c(C#N)c2)nc1=O [5-((9-Methoxy-4-oxo-6,7-dihydro-4H-pyrimido[6,1-a]isoquinolin-2-yl)oxy)-2-(3-(trifluoromethyl)phenoxy)benzonitrile] |  |  | decrease | increase
CCn1ccc(OCc2ccc(Oc3ccc(Cl)c(C(F)(F)F)c3)c(C#N)c2)nc1=O [Example 5, 2-{[4-Chloro-3-(trifluoromethyl)phenyl]oxy}-5-{[(1-ethyl-2-oxo-1,2-dihydro-4-pyrimidinyl)oxy]methyl}benzonitrile] | ≤ 1 nM | ≤ 1000 nM |  | 
CCn1ccc(OCc2ccc(Oc3ccc(Cl)c(C(F)(F)F)c3)cc2)cc1=O [Example 23, 4-{[(4-{[4-Chloro-3-(trifluoromethyl)phenyl]oxy}phenyl)methyl]oxy}-1-ethyl-2(1H)-pyridinone] | > 10 nM | > 10000 nM |  | 
Cc1cn(Cc2cnn(C)c2)c(=O)nc1OCc1ccc(Oc2ccc(F)c(F)c2)c(F)c1 [Example 72, 4-((4-(3,4-difluorophenoxy)-3-fluorobenzyl)oxy)-5-methyl-1-((1-methyl-1H-pyrazol-4-yl)methyl)pyrimidin-2(1H)-one] | ≤ 1 nM | ≤ 100 nM |  | 
N#Cc1cc(COc2ccn(Cc3cccnc3)c(=O)n2)ccc1Oc1ccc(Cl)c(C(F)(F)F)c1 [Example 4, 2-(4-Chloro-3-(trifluoromethyl)phenoxy)-5-(((2-oxo-1-(pyridin-3-ylmethyl)-1,2-dihydropyrimidin-4-yl)oxy)methyl)benzonitrile] | ≤ 1 nM | ≤ 100 nM |  | 
Cn1cc(Cn2ccc(OCCc3cnc(Oc4ccc(Cl)c(C(F)(F)F)c4)c(F)c3)nc2=O)cn1 [Example 18, 4-{[2-(6-{[4-Chloro-3-(trifluoromethyl)phenyl]oxy}-5-fluoro-3-pyridinyl)ethyl]oxy}-1-[(1-methyl-1H-pyrazol-4-yl)methyl]-2(1H)-pyrimidinone] | ≤ 1 nM | ≤ 100 nM |  | 
Cn1cc(Cn2cc(F)c(OCCc3ccc(Cc4ccc(Cl)c(C(F)(F)F)c4)cc3)nc2=O)cn1 [Example 46, 4-(4-(4-chloro-3-(trifluoromethyl)benzyl)phenethoxy)-5-fluoro-1-((1-methyl-1H-pyrazol-4-yl)methyl)pyrimidin-2(1H)-one] | ≤ 1 nM | ≤ 100 nM |  | 

Second part, led by results:

IC50 [1] | IC50 (Lp-PLA2 from plasma) | SMILES | M1 markers [2] | M2 markers [2]
≤ 1 nM | ≤ 100 nM | Cn1cc(Cn2cc(F)c(OCCc3cnc(Oc4ccc(Cl)c(C(F)(F)F)c4)c(F)c3)nc2=O)cn1 [Example 33, 4-(2-(6-(4-chloro-3-(trifluoromethyl)phenoxy)-5-fluoropyridin-3-yl)ethoxy)-5-fluoro-1-((1-methyl-1H-pyrazol-4-yl)methyl)pyrimidin-2(1H)-one] |  | 
≤ 1 nM | ≤ 100 nM | Cc1cn(Cc2cnn(C)c2)c(=O)nc1OCc1ccc(Oc2ccc(F)c(F)c2)c(C#N)c1 [Example 71, 2-(3,4-difluorophenoxy)-5-(((5-methyl-1-((1-methyl-1H-pyrazol-4-yl)methyl)-2-oxo-1,2-dihydropyrimidin-4-yl)oxy)methyl)benzonitrile] |  | 
> 10 nM | ≤ 1000 nM | COc1ncc(Cn2cc(C)c(OCCc3ccc(Oc4ccc(F)c(F)c4)nc3)nc2=O)cn1 [Example 70, 4-(2-(6-(3,4-difluorophenoxy)pyridin-3-yl)ethoxy)-1-((2-methoxypyrimidin-5-yl)methyl)-5-methylpyrimidin-2(1H)-one] |  | 
≤ 1 nM | ≤ 100 nM | COc1ncc(Cn2cc(F)c(OCCc3ccc(Cc4ccc(Cl)c(C(F)(F)F)c4)cc3)nc2=O)cn1 [Example 47, 4-(4-(4-chloro-3-(trifluoromethyl)benzyl)phenethoxy)-5-fluoro-1-((2-methoxypyrimidin-5-yl)methyl)pyrimidin-2(1H)-one] |  | 
≤ 1 nM | ≤ 100 nM | COc1ncc(Cn2cc(Cl)c(OCCc3cnc(Oc4ccc(Cl)c(C(F)(F)F)c4)c(F)c3)nc2=O)cn1 [Example 32, 5-chloro-4-(2-(6-(4-chloro-3-(trifluoromethyl)phenoxy)-5-fluoropyridin-3-yl)ethoxy)-1-((2-methoxypyrimidin-5-yl)methyl)pyrimidin-2(1H)-one] |  | 
≤ 1 nM | ≤ 100 nM | Cc1cn(Cc2cnn(C)c2)c(=O)nc1OCCc1ccc(Oc2ccc(Cl)c(C(F)(F)F)c2)cc1 [Example 66, 4-(4-(4-chloro-3-(trifluoromethyl)phenoxy)phenethoxy)-5-methyl-1-((1-methyl-1H-pyrazol-4-yl)methyl)pyrimidin-2 (1H)-one] |  | 
